The test system of one assay is WM35 (melanoma) cells. As to the kind of experiment: Caspase-3 fluorescent substrate (Rhodamine 123-YVAD) and PI staining of floater cells, FACS. The settings on record: PI-minus floater cells, 15 μg/ml, 18-24 hours after induction. Type of assay: cell-based. How it is done:
WM35 cells were passed one day prior to induction of apoptosis and incubated for 24 hrs to allow the cells to attach to the substrate. The media was subsequently removed, the remaining adherent cells washed 1× with PBS, and subsequently exposed to Cisplatin (15 μg/ml) in fresh media. Eighteen to twenty-four hours after the induction of apoptosis, the floater cell population was collected, pelleted by centrifugation (400×g), and resuspended at 3×10^6 cells/ml in PBS. Samples were then split into four groups: (1) uninduced minus Rhodamine 123-YVAD (substrate), (2) uninduced plus substrate, (3) induced minus substrate, and (4) induced plus substrate. For samples exposed to Rhodamine 123-YVAD substrate, 50 ul of a pre-warmed (37° C.) cell suspension was combined with 25 ul of a stock substrate solution (Cellprobe). Samples were incubated for 60 minutes at 37° C. and then placed on ice prior to FACS analysis. In addition to caspase-3 staining, a replicate of each sample was stained with propidium iodide to determine the percentage of cells within the population whose membranes had been compromised and the overlap between PI and caspase-3 staining. […] Emission spectra were read at 515-535 nm wavelength using the FL1 (PMT2) 525 nm blue filter.

The subject of a further assay is HS294T cells. Briefly: Ethidium homodimer/Syto16 staining for cell death and nuclear morphology. In kind it is cell-based. As to the method:
(§1) Two cell lines, WM35 and HS294T, were plated out (50,000 cells per well, 24 well plate) and allowed to adhere. After 24 hours, the cells were treated for 4 hours with varying concentrations (5-80 μM) of Cisplatin (cis-platinum (II) diammine dichloride), a well-known chemotherapeutic agent that induces apoptosis. […] Adherent cell populations were then lifted from the solid support by trypsinization, centrifuged (400×g), and resuspended in PBS (0.125 ml). To observe the nuclear morphology and percent cell death in the WM35 and HS294T cell lines, cells from both floater and adherent populations were stained concurrently with Syto16 and ethidium homodimer (125 ul of cell suspension+2.5 ul 62.5 uM Syto16+[…] 100 ug/ml ethidium homodimer, 10 minutes at 37° C.). Ethidium homodimer is a membrane impermeant compound that fluoresces in the 617 nm range when it is intercalated with chromosomal DNA. Thus, in a mixed cell population containing both living and dead/dying cells, only those cells whose membranes have been compromised will stain with ethidium homodimer. In contrast, Syto 16 (Molecular Probes) is a membrane permeant dye that fluoresces in the 518 nm range when associated with chromosomal DNA. Together, these two dyes can be used to observe and distinguish the nuclear morphology in a population containing both living and dead/dying cells.

Another assay has as its system WM35 cells. The description is as above. In kind it is cell-based. As to the method:
as §1

In the next assay the test system is T47D cells. Briefly: Kill curve in T47D cells (cell number after 5 days). Type of assay: cell-based. How it is done: Approximately 250,000 cells were seeded into each well of a six well plate. Cells were then grown in media containing camptothecin of varying concentrations (0-10 uM). After 5 days, the number of cells remaining in each of the camptothecin-treated wells was compared with untreated controls. From these experiments, it was determined that camptothecin concentrations ranging from 1-4 nM had no effect on T47D cell number over the course of the 5 days of treatment. […] In order to determine whether this level of treatment is concomitantly increasing the number of floaters in the population, several flasks are seeded with T47D cells and then treated with 1-4 nM concentrations of camptothecin. After a period of three to five days, the media is collected and the number of floater cells are counted and compared to the total number of cells in the flask (floaters+adherents).

Another assay deals with HuVECs 9F0293 cells. Briefly: Time course of detachment and PI staining of HuVECs (9F0293). Type of assay: cell-based, Human. The following applies: 2 ug/ml. How it is done:
To determine the time course in which dead and/or dying HuVECs detach from the solid support in response to a cytotoxic agent, 9F0293 cells were plated and subsequently treated with puromycin (2 ug/ml). Both floater and adherent cell populations were then collected at varying times (t=4, 7, 9, 16, 20, and 24 hours) and analyzed to determine (a) the percent PI^+ cells in the floater population and (b) the fraction of cells which became floaters. […] The fraction of floaters that stained with PI (PI^+ population) increased with time.

A further assay deals with HT29 cells. Briefly: Induction of apoptosis in HT29 cells (detachment, nuclear morphology). In kind it is cell-based. The settings on record: after 48 hours of treatment.
In another assay the test system is HT29 colon cancer cells. Briefly: HT29 floater assay (negative selection). Type of assay: cell-based. The settings on record: for level of floaters relative to background: Sort VI clones, FIG. 10. As to the method:
HT29 cells were tested for feasibility in the floater cell assay as follows. Briefly, six flasks were inoculated with 6.25×10^5 HT29 cells/flask on Day 0. On Day 1, after the cells had been allowed to adhere to the solid support, two of these flasks were infected with retroviral supernatant containing the retroviral vector pVT324, which includes a selectable drug resistant marker (e.g. neomycin), and which constitutively expresses a green fluorescent protein. Of the remaining four flasks, two were mock infected (i.e. exposed to all of the same reagents/conditions as flasks 1 and 2, minus the retrovirus, see “Example 3C”) and two were left undisturbed. On Day 2, this procedure was repeated (i.e. a double infection). On Day 3 (and subsequently on Day 5) one flask was selected from each of the three groups and processed by separating and counting the floater and adherent cell populations. In the case of the floater cell population, the media was collected, centrifuged at 200×g for 10 minutes, and resuspended in PBS prior to removing a sample for counting on a hemocytometer. For the adherent cell population, cells were first removed from the flask by trypsinization, centrifuged, and then processed for analysis in a fashion analogous to the floater cells. To determine the inherent background level of floater cells present in the population, the ratio of the number of floater cells to the total number of cells (adherent cells+floater cells) was analyzed on both the Day 3 and Day 5 flasks that had not been manipulated. These numbers were compared with the analogous numbers taken from infected and mock-infected flasks to determine whether the retrovirus or transfection procedures altered background floater rates. To determine the susceptibility of HT29 cells to retroviral infection, the fraction of cells that expressed GFP in pVT324 infected flasks was calculated using flow cytometry.
Twenty T175 flasks were seeded with 2.2×10^6 HT29 cells/flask in McCoy's 5A media (Gibco BRL) modified with 10% FBS. On Day 1, each flask was infected (4 μg/ml polybrene, 50% volume) with a retroviral supernatant containing a commercially obtained brain cDNA library (“Example Three” above). On Day 2 the media was changed. On Day 3 both the floater and adherent cell populations were collected (separately) from the twenty flasks. Approximately 652,500 floaters were isolated from a theoretical background of 4.2×10^7 adherents (1.5% floaters) and frozen down for future studies. […] Additional floater cells were then collected Day 5, where the collection and counting procedures were repeated and some 7.8×10^6 floaters and 7.6×10^8 adherents were counted (1.03% floaters). […] The floater populations of Days 3 and 5 were then combined and readied for a genomic DNA prep using a QIAamp kit (Qiagen) following standard procedures. Briefly, some 9×10^6 floater cells in PBS were lysed to release gDNA. This material was passed over a QIAamp column that was then washed several times to remove protein and RNA contaminants. Twenty-seven micrograms of genomic DNA were then eluted from the columns with dH2O and treated with RNAse A to eliminate any RNA contamination. This gDNA was then subjected to PCR procedures to amplify the library sequences encoded therein. […]

Assay [1] relates to ecdysone receptor (pVgRXR). Briefly: Induction of GFP fluorescence from ecdysone-regulated vector pBIGFII in ECR293 cells. The settings on record: 5 μM, cells containing pBIGFII and pVgRXR. Type of assay: cell-based. The text has this: As an alternative to the constitutive pCLMFG vector, an inducible construct that can be regulated by ecdysone was constructed as follows. The PmII/XhoI fragment from pVT324 was inserted into the MCS of the PIND vector (Invitrogen). This product was then digested with BgIII, blunt-ended and inserted into a pBabe-K-ras vector (pVT313-based) that had been digested with BamHI/XhoI and blunted (Klenow Fragment). The resulting vector was designated pBabe-Forward-1. The XbaI fragment of pVT324 was then inserted into the compatible site of pBabe-Forward-1. The resulting vector was designated pBIGFII. Vector pBIGFII was subsequently transfected into cells (ECR293, Invitrogen) that contain an endogenous copy of the ecdysone receptor (pVgRXR).

For assay [2], the target named is epitope in the mitochondrial membrane that is exposed only in cells that are undergoing apoptosis (Jurkat cells, permeabilized with digitonin). As to the kind of experiment: flow cytometry, digitonin-permeabilized Jurkat cells, 0 hours in anti-FAS antibody.
Assay [3] shares this target. Briefly: flow cytometry, digitonin-permeabilized Jurkat cells, 21 hours in anti-FAS antibody (1 ug/ml). (In general: A flow cytometer gives signals particle by particle.)
The mark [4] stands for this setting: floater population, 5-80 μM for 4 hours, 18-24 hrs later.

Where no end group is shown, it is not given here. Where only a bound is given, the exact number is not on record here.

Turning to `N.N.[Cl-].[Cl-].[Pt+2]` [Cisplatin, cis-platinum (II) diammine dichloride], the caspase-3 positive cells in the assay on WM35 (melanoma) cells is on record as 94.6%. Besides, the “ethidium homodimer staining of adherent cell population” value in the assay on HS294T cells (adherent population) and with WM35 cells (adherent population) was < 10% in each case. Also, the “cells showing condensed or fragmented nuclei” value in the assay on HS294T cells (ethidium homodimer stained floater cells, fluorescent microscopy) is recorded as < 20%. The “floater cells stained with ethidium homodimer” value with HS294T cells (setting [4]) was “greater than 50%”. Moreover, the “ethidium homodimer staining of floaters” value in the assay with WM35 cells (setting [4]) is on record as 45-50%. Besides, the “condensed or fragmented nuclei in floaters” value in the assay with WM35 cells (floaters, higher concentrations) is 40-50%.
On to `CC[C@@]1(O)C(=O)OCc2c1cc1n(c2=O)Cc2cc3ccccc3nc2-1` [camptothecin], for which the “cell number relative to the untreated control” value with T47D cells (10 nM, 5 days) is on record as “roughly one third”. The “concentrations with no effect on cell number” value in the assay on T47D cells (5 days of treatment) is 1 to 4 nM.
As to `COc1ccc(C[C@H](N)C(=O)N[C@H]2[C@@H](O)[C@H](n3cnc4c(N(C)C)ncnc43)O[C@@H]2CO)cc1` [puromycin], the “time point at which the majority of cells detached” value with HuVECs 9F0293 cells is 16 h. Further, the “floater cells in the PI+ gate” value in the assay with HuVECs 9F0293 cells (by 20 hours) is “nearly all”.
Take `CSc1ccc(/C=C2/C(C)=C(CC(=O)O)c3cc(F)ccc32)cc1` [sulindac sulfide]: the “detachment and apoptotic morphology” value in the assay on HT29 cells is “majority of the cells had detached from the dish and showed typical apoptotic morphology”.
Consider “0328: cytotoxic agent isolated from clone 0328, SEQ ID NO: 23 (XXAVAWLGSTGMTCGAQRLRSLR; X: residue not identified in the source) [compound 0328]”, for which, in the assay on HT29 colon cancer cells, the “level of floaters relative to background” value is reported as “increased levels of floaters that were statistically significant relative to background”. The floater rate in the assay with HT29 colon cancer cells (individual clone reintroduced into HT29 cells) worked out at 2%.
`CC(C)CC[C@@H](O)[C@](C)(O)[C@H]1CC[C@@]2(O)C3=CC(=O)[C@@H]4C[C@@H](O)[C@@H](O)C[C@]4(C)[C@H]3CC[C@]12C` [ponesterone A]: in assay [1], the “increase of the level of fluorescence” value is “approximately thirty”.
In the case of “Apo2.7 monoclonal antibody (Coulter Immunotech), fluorescent R-phycoerythrin-cyanin labeled”, the values for the percent of population labeled in assay [2] and in assay [3] were 4% and 81%, respectively.

B1: BID: BID clone among the Sort VI clones tested in the HT29 floater assay (FIG. 10) (protein, UniProt P55957 1-195, looked up)
BH3-interacting domain death …: MDCEVNNGSSLRDECITNLLVFGFLQSCSDNSFRRELDALGHELPVLAPQWEGYDELQTDGNRSSHSRLGRIEADSESQEDIIRNIARHLAQVGDSMDRSIPPGLVNGLALQLRNTSRSEEDRNRDLATALEQLLQAYPRDMEKEKTMLVLALLLAKKVASHTPSLLRDVFHTTVNFINQNLRTYVRSLARNGMD
Take B1: in the assay on HT29 colon cancer cells, the “level of floaters relative to background” value is listed as “increased levels of floaters that were statistically significant relative to background”.

B2: 0195: cytotoxic agent isolated from clone 0195, SEQ ID NO: 22 (protein)
chain: PEILSRSHLLLAGQTLIGVVAMVVEAEGEEDPWAVEAMEVVAVVVVAEEDFPVEVVAVEDSSELVTGSVLIPPVRI
In the case of B2, the “level of floaters relative to background” value in the assay with HT29 colon cancer cells is given as “increased levels of floaters that were statistically significant relative to background”.

(Values after US6582899B1, “Methods for identifying agents that cause a lethal phenotype, and agents thereof” (Deltagen Proteomics, Inc., priority 2000, dated 2003).)
